According to ChEMBL document CHEMBL1148279, “Effects of bisphosphonates on the growth of Entamoeba histolytica and Plasmodium species in vitro and in vivo” (J Med Chem, 2004):

Tests used:
Entamoeba histolytica = experiment: In vitro growth inhibition against Entamoeba histolytica; type: functional, organism-based
[1] = Therapeutic index was expressed as ratio of LD50 for KB cell line to IC50 against Entamoeba histolytica; type: cell-based; details: human, KB cells; read-out: TI
[2] = Therapeutic index was expressed as ratio of LD50 for KB cell line to IC50 against Plasmodium falciparum; type: cell-based; details: human, KB cells; read-out: TI
in vitro = details: human, KB cells (nasopharyngeal carcinoma)
Description: Toxicity evaluated against human nasopharyngeal carcinoma KB cell line

Plasmodium falciparum [3] = experiment: microbe, parasite or virus in culture
Description: In vitro growth inhibition against Plasmodium falciparum

Cricetinae gen. sp. [4] = experiment: Percent decrease of amebic liver abscess (mg) formation in Entamoeba histolytica infected hamsters (treated at 10 mg/kg ip once a day for 5 days); type: functional; details: route intraperitoneal
Cricetinae gen. sp. [5] = experiment: Percent decrease of normal liver weight (mg) in Entamoeba histolytica infected hamsters (treated at 10 mg/kg ip once a day for 5 days); type: functional, Cricetulus griseus; details: route intraperitoneal
Cricetinae gen. sp. [6] = experiment: Mean effect on amebic liver abscess (mg) formation in Entamoeba histolytica infected hamsters (treated at 10 mg/kg ip once a day for 5 days); type: functional, Cricetulus griseus; details: route intraperitoneal
Cricetinae gen. sp. [7] = experiment: Mean effect on normal liver weight (mg) in Entamoeba histolytica infected hamsters (treated at 10 mg/kg ip once a day for 5 days); type: functional, Cricetulus griseus; details: route intraperitoneal
[8] = Inhibitory activity against Entamoeba histolytica pyrophosphate-dependent phosphofructokinase (PFK); type: functional
Mus musculus [9] = experiment: Mean reduction in parasitaemia of Plasmodium berghei ANKA suppressive test in mice (Mus musculus) (in vivo) at 25 mg/kg scheduled for 4 days; type: functional
[10] = Inhibitory activity against Entamoeba histolytica pyrophosphate-dependent phosphofructokinase (PFK) (Range is 600-1200); type: functional
Mus musculus [11] = experiment: Mean reduction in parasitaemia of Plasmodium berghei ANKA suppressive test in mice (Mus musculus) (in vivo) at 10 mg/kg scheduled for 2 days; type: functional
Plasmodium falciparum [12] = experiment: Inhibitory activity against Plasmodium falciparum W2
Plasmodium falciparum [13] = experiment: Inhibitory activity against Plasmodium falciparum 3D7
Plasmodium falciparum [14] = experiment: Inhibitory activity against Plasmodium falciparum Ghana
Mus musculus [15] = experiment: Mean reduction in parasitaemia of Plasmodium berghei ANKA suppressive test in mice (Mus musculus) (in vivo) at 10 mg/kg scheduled for 4 days; type: functional
[16] = Inhibitory activity against Entamoeba histolytica pyrophosphate-dependent phosphofructokinase (PFK) (Range is 2500-3000); type: functional
[17] = Inhibitory activity against Entamoeba histolytica pyrophosphate-dependent phosphofructokinase (PFK) (Range is 900-1000); type: functional

With `O=P(O)(O)C(Nc1ccc(-c2ccccc2)cc1)P(=O)(O)O` the IC50 (Entamoeba histolytica) was 8.76 µM, the selectivity ratio [1] was 56.5 and the selectivity ratio [2] was 6.46. It also gave a CC50 (in vitro) of 495 µM and an IC50 (Plasmodium falciparum [3]) of 76.6 µM.

`CCCCCCCCCCC(O)(P(=O)(O)O)P(=O)(O)O` showed an IC50 (Entamoeba histolytica) of 11 µM, a Decrease (Cricetinae gen. sp. [4]) of 68% and a Decrease (Cricetinae gen. sp. [5]) of 9%. It also gave a Mean effect (Cricetinae gen. sp. [6]) of 285 mg, a Mean effect (Cricetinae gen. sp. [7]) of 2163 mg and an IC50 [8] of 20 µM. For the same molecule, the CC50 (in vitro) was over 806 µM and the IC50 (Plasmodium falciparum [3]) was 5.23 µM.

`CCCCC(O)(P(=O)(O)O)P(=O)(O)O` gave an IC50 (Entamoeba histolytica) of over 200 µM, a selectivity ratio [2] of over 18.4 and a CC50 (in vitro) of over 1040 µM.

Molecule `CCCCCC(O)(P(=O)(O)O)P(=O)(O)O` has an IC50 (Entamoeba histolytica) of 157 µM, a Reduction (Mus musculus [9]) of 80% and an IC50 [10] of 1200 µM. It also gave a CC50 (in vitro) of over 993 µM and an IC50 (Plasmodium falciparum [3]) of 5.53 µM.

For `CN(CCc1ccccc1)CCC(O)(P(=O)(O)O)P(=O)(O)O`, the IC50 (Entamoeba histolytica) was 143 µM, the selectivity ratio [1] was over 5.2 and the selectivity ratio [2] was over 22. It also gave a CC50 (in vitro) of over 739 µM and an IC50 (Plasmodium falciparum [3]) of 33.5 µM.

`O=P(O)(O)C(Nc1ccc(O)nc1)P(=O)(O)O` showed an IC50 (Entamoeba histolytica) of 96.1 µM, a selectivity ratio [1] of 2.67 and a selectivity ratio [2] of 1.3. It also gave a CC50 (in vitro) of 257 µM and an IC50 (Plasmodium falciparum [3]) of 197 µM.

`CCCCCCCCCCCC(O)(P(=O)(O)O)P(=O)(O)O` gave an IC50 (Entamoeba histolytica) of 63.7 µM, an IC50 [8] of 40 µM and an IC50 (Plasmodium falciparum [3]) of 1.07 µM.

`CN(CCOc1ccccc1)CCC(O)(P(=O)(O)O)P(=O)(O)O` showed an IC50 (Entamoeba histolytica) of 6.49 µM, a Decrease (Cricetinae gen. sp. [4]) of -19% and a Decrease (Cricetinae gen. sp. [5]) of 3%. It also gave a Mean effect (Cricetinae gen. sp. [6]) of 1058 mg, a Mean effect (Cricetinae gen. sp. [7]) of 2295 mg and a CC50 (in vitro) of 312 µM. For the same molecule, the IC50 (Plasmodium falciparum [3]) was 31.4 µM.

In the case of `CCCCCCCCCC(O)(P(=O)(O)O)P(=O)(O)O`, the IC50 (Entamoeba histolytica) is reported as 13.3 µM, the Reduction (Mus musculus [11]) is reported as 75% and the IC50 [8] is reported as 70 µM. For the same molecule, the CC50 (in vitro) was over 775 µM, the IC50 (Plasmodium falciparum [3]) was 0.83 µM and the IC50 (Plasmodium falciparum [12]) was 1 µM. The IC50 (Plasmodium falciparum [13]) was 0.83 µM and the IC50 (Plasmodium falciparum [14]) was 2 µM.

`CCCCCC(C)NC(P(=O)(O)O)P(=O)(O)O` (stereo not drawn) showed an IC50 (Entamoeba histolytica) of 65.3 µM, a selectivity ratio [1] of over 15.1 and a selectivity ratio [2] of over 9.64. It also gave a CC50 (in vitro) of over 989 µM and an IC50 (Plasmodium falciparum [3]) of 103 µM.

Molecule `CN(CCCc1ccccc1)CCC(O)(P(=O)(O)O)P(=O)(O)O` has an IC50 (Entamoeba histolytica) of 45.1 µM, a selectivity ratio [1] of 8.4 and a selectivity ratio [2] of 16.6. For the same molecule, the CC50 (in vitro) was 379 µM and the IC50 (Plasmodium falciparum [3]) was 22.8 µM.

With `CCCCCCC(CCCC)C(O)(P(=O)(O)O)P(=O)(O)O` (stereo not drawn) the IC50 (Entamoeba histolytica) was 12.4 µM, the IC50 [8] was 1000 µM and the selectivity ratio [1] was 19.1. It also gave a CC50 (in vitro) of 228 µM and an IC50 (Plasmodium falciparum [3]) of over 200 µM.

With `CCCCCCc1ccc(NC(P(=O)(O)O)P(=O)(O)O)cc1` the IC50 (Entamoeba histolytica) was 132 µM, the selectivity ratio [1] was 2.83 and the selectivity ratio [2] was 8.06. It also gave a CC50 (in vitro) of 373 µM and an IC50 (Plasmodium falciparum [3]) of 46.3 µM.

In the case of `O=P(O)(O)C(Nc1cc(Br)cc(Br)n1)P(=O)(O)O`, the IC50 (Entamoeba histolytica) is reported as 28.5 µM, the Decrease (Cricetinae gen. sp. [4]) is reported as 14% and the Decrease (Cricetinae gen. sp. [5]) is reported as -22%. For the same molecule, the Mean effect (Cricetinae gen. sp. [6]) was 767 mg, the Mean effect (Cricetinae gen. sp. [7]) was 2883 mg and the selectivity ratio [1] was 18.2. For the same molecule, the CC50 (in vitro) was 520 µM and the IC50 (Plasmodium falciparum [3]) was over 200 µM.

For `CCCCCCC(O)(P(=O)(O)O)P(=O)(O)O`, the IC50 (Entamoeba histolytica) was 29.5 µM, the Reduction (Mus musculus [15]) was 48% and the IC50 [16] was 3000 µM. It also gave a CC50 (in vitro) of 109 µM, an IC50 (Plasmodium falciparum [3]) of 4.34 µM and an IC50 (Plasmodium falciparum [12]) of 0.5 µM. For the same molecule, the IC50 (Plasmodium falciparum [13]) was 4.34 µM and the IC50 (Plasmodium falciparum [14]) was 0.5 µM.

`O=P(O)(O)C(O)(CSc1ccncc1)P(=O)(O)O` gave an IC50 (Entamoeba histolytica) of over 200 µM, a selectivity ratio [2] of over 4.72 and a CC50 (in vitro) of over 746 µM.

`O=P(O)(O)C(Nc1cccc(-c2ccccc2)c1)P(=O)(O)O` showed an IC50 (Entamoeba histolytica) of 6.6 µM, a Decrease (Cricetinae gen. sp. [4]) of 36% and a Decrease (Cricetinae gen. sp. [5]) of -4%. The Mean effect (Cricetinae gen. sp. [6]) was 570 mg, the Mean effect (Cricetinae gen. sp. [7]) was 2459 mg and the IC50 [8] was 90 µM. For the same molecule, the CC50 (in vitro) was 749 µM and the IC50 (Plasmodium falciparum [3]) was over 200 µM.

`CCCCCCCCCCCCCC(O)(P(=O)(O)O)P(=O)(O)O` showed an IC50 (Entamoeba histolytica) of 74 µM, a selectivity ratio [1] of 0.5 and a selectivity ratio [2] of 17.4. The CC50 (in vitro) was 36.8 µM and the IC50 (Plasmodium falciparum [3]) was 2.12 µM.

`CCCCCCCCCCCCCCCC(O)(P(=O)(O)O)P(=O)(O)O` showed an IC50 (Entamoeba histolytica) of 44 µM, a selectivity ratio [1] of over 16.6 and a selectivity ratio [2] of over 25.3. The CC50 (in vitro) was over 729 µM and the IC50 (Plasmodium falciparum [3]) was 28.8 µM.

With `CCCCc1ccc(NC(P(=O)(O)O)P(=O)(O)O)cc1` the IC50 (Entamoeba histolytica) was 172 µM, the selectivity ratio [1] was 1.62 and the selectivity ratio [2] was 8.89. It also gave a CC50 (in vitro) of 278 µM and an IC50 (Plasmodium falciparum [3]) of 31.3 µM.

With `CN(CCCCc1ccccc1)CCC(O)(P(=O)(O)O)P(=O)(O)O` the IC50 (Entamoeba histolytica) was 23.4 µM, the Decrease (Cricetinae gen. sp. [4]) was 89% and the Decrease (Cricetinae gen. sp. [5]) was 26%. The Mean effect (Cricetinae gen. sp. [6]) was 94 mg, the Mean effect (Cricetinae gen. sp. [7]) was 1756 mg and the CC50 (in vitro) was over 690 µM. The IC50 (Plasmodium falciparum [3]) was 2.9 µM.

`O=P(O)(O)C(O)(Cc1ccccc1)P(=O)(O)O` gave an IC50 (Entamoeba histolytica) of over 200 µM, a Reduction (Mus musculus [9]) of 64% and an IC50 [17] of 1000 µM. It also gave a selectivity ratio [2] of over 121 and a CC50 (in vitro) of over 931 µM.

`CCN(CC)C(P(=O)(O)O)P(=O)(O)O` [(DIETHYLAMINO)METHYLENEDIPHOSPHONIC ACID] gave an IC50 (Entamoeba histolytica) of 62.6 µM, a selectivity ratio [1] of 12.9 and a selectivity ratio [2] of 8.98. The IC50 (Plasmodium falciparum [3]) was 90.1 µM.

`CCCCCCNC(P(=O)(O)O)P(=O)(O)O` [(HEXYLAMINO)METHYLENEDIPHOSPHONIC ACID] gave an IC50 (Entamoeba histolytica) of over 200 µM, a selectivity ratio [2] of over 17.1 and a CC50 (in vitro) of over 966 µM. For the same molecule, the IC50 (Plasmodium falciparum [3]) was 56.5 µM.

For `CC(C)CCNC(P(=O)(O)O)P(=O)(O)O` [(ISOPENTYLAMINO)METHYLENEDIPHOSPHONIC ACID], the IC50 (Entamoeba histolytica) was 36.9 µM, the selectivity ratio [1] was 13 and the CC50 (in vitro) was 480 µM. The IC50 (Plasmodium falciparum [3]) was over 200 µM.

Work on `CCCCCCCCCNC(P(=O)(O)O)P(=O)(O)O` [(NONYLAMINO)METHYLENEDIPHOSPHONIC ACID] yielded an IC50 (Entamoeba histolytica) of 136 µM, a selectivity ratio [1] of over 6.76 and a selectivity ratio [2] of over 8.18. It also gave a CC50 (in vitro) of over 919 µM and an IC50 (Plasmodium falciparum [3]) of 112 µM.

`CCCCCCCCNC(P(=O)(O)O)P(=O)(O)O` [(OCTYLAMINO)METHYLENEDIPHOSPHONIC ACID] gave an IC50 (Entamoeba histolytica) of 31.1 µM, an IC50 [8] of over 3000 µM and a selectivity ratio [1] of 2.15. It also gave a selectivity ratio [2] of 5.02 and an IC50 (Plasmodium falciparum [3]) of 13.3 µM.

`CCCCCNC(P(=O)(O)O)P(=O)(O)O` [(PENTYLAMINO)METHYLENEDIPHOSPHONIC ACID] gave an IC50 (Entamoeba histolytica) of over 200 µM, a selectivity ratio [2] of over 240 and a CC50 (in vitro) of over 1150 µM. The IC50 (Plasmodium falciparum [3]) was 4.8 µM.

With `CCN(CC)CCCC(C)Nc1ccnc2cc(Cl)ccc12` (stereo not drawn) [CHLOROQUINE] the Reduction (Mus musculus [15]) was 100%.

`O=P(O)(O)C(N1CCOCC1)P(=O)(O)O` [MORPHOLINOMETHYLENEDIPHOSPHONIC ACID] gave an IC50 (Entamoeba histolytica) of over 200 µM, a selectivity ratio [2] of 52.4 and a CC50 (in vitro) of 964 µM. For the same molecule, the IC50 (Plasmodium falciparum [3]) was 18.4 µM.

`NCCC(O)(P(=O)(O)O)P(=O)(O)O` [PAMIDRONIC ACID] gave an IC50 (Entamoeba histolytica) of over 200 µM and a Reduction (Mus musculus [9]) of 5%.

With `O=P(O)(O)C(O)(Cc1cccnc1)P(=O)(O)O` [RISEDRONIC ACID] the IC50 (Entamoeba histolytica) was 73.5 µM and the IC50 [8] was over 3000 µM.
